The values that follow come from paper PMC5513865 (British Journal of Pharmacology, 2017).

The subject of series [1] is μ receptor gene-disrupted 'knockout' (μ-KO) mice. To be noted: mouse, in vivo.
Series [2] addresses δ receptor. Details: method as in Spetea et al., 2012. To be noted: ref Spetea et al., 2012; read-out: binding affinity for the δ receptor; cited from earlier work.
Series [3] concerns the target T1, human κ receptor (Homo sapiens, UniProt P41145). Description: biochemical. It is filed as biochemical. Details: expressed in transfected cells.
For series [4], the system named is κ receptor gene-disrupted 'knockout' (κ-KO) mice. To be noted: mouse, in vivo.
The target of series [5] is T2, human μ receptor (Homo sapiens, UniProt P35372).
T2 construct: expressed in transfected cells
T2 sequence (P35372 whole entry): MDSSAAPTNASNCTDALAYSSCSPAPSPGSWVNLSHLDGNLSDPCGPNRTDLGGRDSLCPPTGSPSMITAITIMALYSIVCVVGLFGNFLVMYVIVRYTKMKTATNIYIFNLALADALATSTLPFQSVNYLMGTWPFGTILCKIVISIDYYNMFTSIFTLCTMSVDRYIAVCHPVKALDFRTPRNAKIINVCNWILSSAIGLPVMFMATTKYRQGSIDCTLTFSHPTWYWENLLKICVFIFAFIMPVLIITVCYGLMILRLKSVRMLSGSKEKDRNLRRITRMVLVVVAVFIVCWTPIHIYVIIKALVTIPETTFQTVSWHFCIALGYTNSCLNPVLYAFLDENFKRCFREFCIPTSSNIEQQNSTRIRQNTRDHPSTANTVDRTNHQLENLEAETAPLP
As to the kind of experiment: [35S]-GTPγS binding assay, CHO-hμ membranes. Format: biochemical. The following applies: at concentrations up to 10 μM. A general note: GTPγS is a poorly hydrolysed GTP analogue; its binding reports G protein activation.

For series [6], the system named is C57BL/6J wild-type mice. To be noted: mouse, in vivo.
The target in series [7] is T3, human NOP receptor (Homo sapiens, UniProt P41146).
T3 construct: expressed in transfected cells
T3 sequence (P41146 whole entry): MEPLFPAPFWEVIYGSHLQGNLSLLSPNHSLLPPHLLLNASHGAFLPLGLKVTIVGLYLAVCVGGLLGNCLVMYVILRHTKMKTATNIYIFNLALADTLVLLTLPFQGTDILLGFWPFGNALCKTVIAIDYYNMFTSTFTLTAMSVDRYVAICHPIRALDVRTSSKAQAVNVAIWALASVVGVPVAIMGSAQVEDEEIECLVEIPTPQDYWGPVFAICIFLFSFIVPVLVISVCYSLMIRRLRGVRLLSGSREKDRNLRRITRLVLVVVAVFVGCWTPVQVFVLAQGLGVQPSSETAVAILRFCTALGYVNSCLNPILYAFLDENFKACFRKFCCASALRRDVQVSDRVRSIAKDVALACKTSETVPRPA
Description: [3H]-N/OFQ NOP receptor binding assay, CHO-hNOP membranes. The following applies: up to a concentration of 10 μM.

The target of series [8] is human κ receptor. Details: method as in Spetea et al., 2012. The following applies: ref Spetea et al., 2012, read-out: binding affinity (Ki) for the κ receptor; cited from earlier work.
For series [9], the system named is C57BL/6J wild-type mice. Description: Rotorod assay to determine locomotor activity. It is filed as in vivo, mouse. The following applies: i.c.v., HS665 10 nmol, HS666 30 nmol (ED90); 10-60 min. Background: Falling from the rotarod earlier than controls is read as motor impairment.
Series [10] relates to C57BL/6J wild-type mice. The following applies: mouse, in vivo. The source holds these as a separate data set.
Series [11] addresses T1, human κ receptor. Description: cell-based. It is filed as cell-based. Details: host or cells: U2OS (U2OS–hκ receptor–β‐arrestin2 cells), PathHunter eXpress.
Series [12] addresses μ receptor. Details: method as in Spetea et al., 2012. The following applies: ref Spetea et al., 2012; read-out: binding affinity (Ki) for the μ receptor; cited from earlier work.
Series [13] relates to human κ receptor.
In series [14] the test system is C57BL/6J wild-type mice. Details: method as in Aldrich et al., 2014. To be noted: i.c.v.; ref Aldrich et al., 2014; cited from earlier work.
Series [15] deals with mice. Details: method as in Spetea et al., 2012. To be noted: s.c., ref Spetea et al., 2012; cited from earlier work.

Structures are written as SMILES. Several values for one entry are separate records, joined by “and”; a condition that tells them apart may be missing. Identical values can stand only once. Counter-ions that a name gives are not always drawn. Where only a bound is given, the exact number is not on record here.

T1 sequence (P41145 whole entry): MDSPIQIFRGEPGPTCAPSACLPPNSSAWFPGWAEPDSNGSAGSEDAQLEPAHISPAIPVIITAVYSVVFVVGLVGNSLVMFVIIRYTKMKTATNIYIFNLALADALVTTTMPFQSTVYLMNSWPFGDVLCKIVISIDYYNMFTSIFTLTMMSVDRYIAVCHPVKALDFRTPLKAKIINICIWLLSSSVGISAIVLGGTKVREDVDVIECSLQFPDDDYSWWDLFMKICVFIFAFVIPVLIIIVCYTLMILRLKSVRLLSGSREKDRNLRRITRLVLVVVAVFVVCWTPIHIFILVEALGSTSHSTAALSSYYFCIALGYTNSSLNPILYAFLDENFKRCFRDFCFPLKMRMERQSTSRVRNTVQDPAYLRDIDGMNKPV

The term EC50 denotes the midpoint of the concentration-response curve. A higher EC50 goes with lower potency in that assay. As usually defined, the Emax is the maximal effect, on the per cent scale that the assay sets. With `Oc1cccc(CCN(CCc2ccccc2)CC2CC2)c1` [HS666], the “antinociceptive activity in μ-KO mice compared with wild-type” value in series [1] is recorded as “not statistically altered”. For the same compound, the Ki in series [2] was more than 10000 nM. Moreover, in series [3], a half-maximal effect (EC50) was put at 35.7 ± 6 nM, the “agonist-stimulated [35S]-GTPγS binding in the presence of nor-BNI” value is reported as “significantly antagonized”, the “inhibition of U69,593-stimulated [35S]-GTPγS coupling” value was “partially blocks” and the “log(τ/KA) G protein” value is reported as 5.73 ± 0.29. Also, in [3] (read-out: G protein coupling Emax), the Emax is 50 ± 4%. In [4], the “antinociceptive activity in κ-KO mice compared with wild-type” value is “no antinociceptive activity”. Also, the “G protein activation (agonist activity) at the μ receptor” value in series [5] is “no agonist activity”. Besides, the “conditioned place preference or aversion” value in series [6] is listed as “neither significant preference nor aversion”. In [7], the “affinity for the NOP receptor” value was “no significant affinity”. Besides, the Ki in [8] is 5.9 nM. In addition, the “effect on motor performance (latency to fall)” value in series [9] is recorded as “did not significantly impact motor performance”. Further, in series [10], the “% antinociception” value was found to be 1.00 ± 0.48%. For the same compound, in series [11], the EC50 came to 449 ± 56 nM and the “log(τ/KA) β-arrestin2” value was found to be 3.52 ± 0.02. In addition, the Emax in series [11] (read-out: β-arrestin2 recruitment Emax) amounted to 24 ± 1%. Further, the Ki in series [12] was 826 nM. In series [13], the “bias factor (G protein over β-arrestin2)” value came out at 62; the “fold decrease in potency, [35S]-GTPγS assay versus PathHunter assay” value is reported as 13 fold; the “ΔΔlog(τ/KA) G protein - β-arrestin2” value is on record as 1.79.

On to `CN1CC[C@]23c4c5ccc(O)c4O[C@H]2[C@@H](O)C=C[C@H]3[C@H]1C5` [morphine, morphine sulfate, reference compound], for which the “conditioned place preference or aversion” value in [6] is listed as “significant CPP”. Further, the “antinociceptive ED50” value in series [14] is 2.35 nmol.

For the compound `Oc1cccc(CCN(CCc2ccccc2)CC2CCC2)c1` [HS665], the “antinociceptive activity in μ-KO mice compared with wild-type” value in series [1] is on record as “not statistically altered”. The “G protein activation (agonist activity) at the μ receptor” value in series [5] is “no agonist activity”. In addition, the “κ receptor-mediated antinociceptive effects in the writhing test” value in [15] is recorded as “comparable with U50,488”. In addition, the “conditioned place preference or aversion” value in series [6] is on record as “significant place aversion”. For the same compound, the “affinity for the NOP receptor” value in [7] is on record as “no significant affinity”. The “effect on motor performance (latency to fall)” value in series [9] is on record as “did not significantly impact motor performance”. For the same compound, in [10], the “% antinociception” value turned out to be 1.97 ± 1.18%; the “antinociceptive ED50 and 95% C.I.” value was 3.99 (3.14 – 5.33) nmol and 4.74 (3.72 – 6.41) nmol and 3.74 (2.98–4.78) nmol and 3.74 nmol. The “bias factor (G protein over β-arrestin2)” value in series [13] was 389.

`Oc1ccc2c3c1O[C@H]1c4[nH]c5c(c4C[C@@]4(O)[C@@H](C2)N(CC2CC2)CC[C@]314)C[C@@]1(O)[C@H]2Cc3ccc(O)c4c3[C@@]1(CCN2CC1CC1)[C@H]5O4` [nor-BNI, nor‐binaltorphimine, reference compound]: the “inhibition of U69,593-stimulated [35S]-GTPγS coupling” value in [3] was “completely blocks coupling”.
